# Read-outs that look alike come from different tables or passages of the source.
# What was measured:
# VDAC1 = target: T1, VDAC1 (Rattus norvegicus, UniProt Q9Z2L0); assay: Affinity labeling of rat mitochondria with the tritiated spiro compound, SDS-PAGE and fluorography; format: binding; conditions: rat brain mitochondria; 10 nM radiolabel
# T1 construct: from tissue; host or cells: Percoll-purified rat brain and liver mitochondria
# Experimental: FIG. 6: Affinity-labeling of isolated rat brain (A) and liver (B) mitochondria. Mitochondrial preparations were incubated in the presence of 10 nM Spiro[cyclopentane-1,5′-[5H]dibenzo[a,d]cyclohepten]-2-one,10′,11′-t2-10′,11′-dihydro-3-methylene- for 15 min at 25° C. in presence or absence of various concentrations of Spiro[cyclopentane-1,5′-[5H]dibenzo[a,d]cyclohepten]-2-one,10′,11′-dihydro-3-methylene-(unlabeled). Samples were submitted to SDS-PAGE (see Experimental Procedures section for details) and fluorography. The fluorograms of the gels are shown. The molecular mass scale (kDa) is shown in the ordinate.
# (§1) FIG. 8: (A) Effect of monobromobimano (MBBM) and phenylarsino oxide (PhAO) on VDAC1 labeling by Spiro[cyclopentane-1,5′-[5H]dibenzo[a,d]cyclohepten]-2-one,10′,11′-t2-10′,11′-dihydro-3-methylene- in rat brain mitochondria. Experimental conditions were as in the legend to FIG. 5. (B) Effect of various MPTP inhibitors, atractyloside (ATR) and DIDS on VDAC1 labeling by Spiro[cyclopentane-1,5′-[5H]dibenzo[a,d]cyclohepten]-2-one,10′,11′-t2-10′,11′-dihydro-3-methylene- in rat brain mitochondria. Mitochondria were exposed to DIDS for 5 min before rinsing for removal of the free agent and labeling with Spiro[cyclopentane-1,5′-[5H]dibenzo[a,d]cyclohepten]-2-one,10′,11′-t2-10′,11′-dihydro-3-methylene.
# Percoll purified mitochondria (˜30 μg protein per sample) were incubated in the presence of 10 nM Spiro[cyclopentane-1,5′-[5H]dibenzo[a,d]cyclohepten]-2-one,10′,11′-t2-10′,11′-dihydro-3-methylene- in a final volume of 200 μl. After incubation for 15 min at 25° C., samples were centrifuged at 25000×g and the mitochondrial pellet rinsed twice with buffer. Samples were then solubilized in sample buffer containing β-mercaptoethanol (1 h at 37° C.) and subjected to SDS-polyacrylamide gel-electrophoresis (SDS-PAGE) on Tris-glycine Novex pre-cast mini-gels (12% monomer concentration, Invitrogen BV, The Netherlands). After Coomassie Blue staining, gels were processed for fluorography by soaking in Amplify™ (Amersham Biosciences), drying and exposing to X-ray BioMax MS film with BioMax MS intensifying screen (Kodak) at −80° C. for the appropriate time.
# as §1, with “Effect” for “FIG. 8: (A) Effect”, “monobromobimano” for “monobromobimano (MBBM)”, “oxide” for “oxide (PhAO)”, “Example 12 (FIG. 8A).” for “the legend to FIG. 5. (B)”, “Spiro[cyclopentane-1,5′-[5H]dibenzo[a,d]cyclohepten]-2-one,10′,11′-t2-10′,11′-dihydro-3-methylene (FIG. 8B).” for “Spiro[cyclopentane-1,5′-[5H]dibenzo[a,d]cyclohepten]-2-one,10′,11′-t2-10′,11′-dihydro-3-methylene.”
# MPTP [1] = test system: T2, MPTP; assay: Ca2+-induced swelling in deenergized liver mitochondria; format: biochemical; conditions: n=2; 30 min after addition of 200 μM Ca2+; read-out: EC50 of MPTP inhibition in deenergized mitochondria
# T2 construct: other: n=2; 30 min after addition of 200 μM Ca2+
# [2] = test system: mitochondrial respiration; assay: Mitochondrial respiration (oxygen consumption); format: biochemical; conditions: at concentrations completely blocking MPTP
# Experimental: Isolated liver mitochondria (˜0.5 mg protein ml^−1) were incubated in a batch mode in the presence of 20 nM [^3H]TPP ([^3H]Tetraphenylphosphonium ([^3H]TPP, 24-29 Ci/mmol) from Amersham Biosciences, Switzerland) for 15 min at 25° C. Aliquots (100 μl) of the mixture were then distributed into 96-well plates containing 100 μl of the test compound and the incubation prolonged for 15 min at 25° C. Samples were then filtered through 0.3% (v/v) polyethyleneimmine-treated GF/B glass fiber filters using a 96-channel cell harvester and the filters washed twice with 1 ml of buffer. Fifty μl of MICROSCINT 40 (Packard) were then added to each well, before counting for radioactivity in a TopCount scintillation counter (Packard). Non-specific uptake was determined in the presence of 1 mM unlabeled TPP or 1 μM carbonylcianide-p-trifluoromethoxyphenyl hydrazone (FCCP). Mitochondrial oxygen consumption was measured polarographically at 25° C. using a Clark-type electrode.
# Compounds found to inhibit MPTP where then counter-screened using uptake of the potentiometric probe [^3H]-TPP (Hoek, J. B., Nicholls, D. G. & Williamson, J. R. (1980) J. Biol. Chem. 255, 1458-1564) for determining in a semi-quantitative, but rapid way whether they interfered with mitochondrial respiration (e.g. protonophores). […]
# Cyp-D = Cyp-D (Homo sapiens, UniProt P30405); assay: Cyp-D peptidyl prolyl cis-trans isomerase enzymatic activity; format: biochemical; conditions: at concentrations completely blocking MPTP
# Cyp-D, sequence (P30405 30-207): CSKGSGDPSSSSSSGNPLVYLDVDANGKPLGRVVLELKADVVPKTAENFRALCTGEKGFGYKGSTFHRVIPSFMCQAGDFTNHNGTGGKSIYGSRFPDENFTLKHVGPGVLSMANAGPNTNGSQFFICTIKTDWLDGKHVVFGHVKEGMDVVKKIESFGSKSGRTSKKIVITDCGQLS
# MPTP [3] = target: T3, MPTP (Rattus norvegicus, UniProt Q9Z2L0); assay: Ca2+-retention capacity of rat brain mitochondria (Calcium Green-5N); format: biochemical
# T3 construct: other: n=2; glutamate/malate; other: glutamate/malate; 20 min; mean±SEM; unit not given; other: 300 nM; relieved by 50 μM Ub5
# T3 sequence (Q9Z2L0 2-283): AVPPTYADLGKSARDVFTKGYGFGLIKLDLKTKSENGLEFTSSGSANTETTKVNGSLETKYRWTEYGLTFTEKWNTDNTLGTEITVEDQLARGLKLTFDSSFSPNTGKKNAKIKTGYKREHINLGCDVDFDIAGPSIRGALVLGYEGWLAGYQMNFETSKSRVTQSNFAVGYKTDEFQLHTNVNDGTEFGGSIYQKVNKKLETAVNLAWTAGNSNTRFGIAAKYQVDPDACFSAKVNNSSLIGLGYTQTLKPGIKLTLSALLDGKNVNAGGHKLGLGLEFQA
# Experimental: FIG. 4: (A) Effect of Spiro[cyclopentane-1,5′-[5H]dibenzo[a,d]cyclohepten]-2-one,10′,11′-dihydro-3-methylene- and CsA on Ca^2+-retention capacity of rat brain mitochondria. The incubation medium contained 0.2 M sucrose, 10 mM Tris-Mops, pH 7.4, 1 mM Pi-Tris, 5 μM EGTA and 5 mM glutamate/2.5 mM malate, buffered to pH 7.4 with Tris, containing 0.01% (w/v) bovine serum albumin and 1 μM Calcium Green-5N. The final volume was 2.5 ml. Trace (a) control, (b) 1 μM CsA, (c) 1 μM Spiro[cyclopentane-1,5′-[5H]dibenzo[a,d]cyclohepten]-2-one,10′,11′-dihydro-3-methylene- and (d) 1 μM CsA plus 1 μM Spiro[cyclopentane-1,5′-[5H]dibenzo[a,d]cyclohepten]-2-one,10′,11′-dihydro-3-methylene-. Each fluorescence spike corresponds to addition of 5 μM Ca^2+. (B) Comparison of Ca^2+-retention capacity in liver (a) and brain mitochondria (b).
# Effect of Spiro[cyclopentane-1,5′-[5H]dibenzo[a,d]cyclohepten]-2-one,10′,11′-dihydro-3-methylene- and CsA on Ca^2+-retention capacity of rat brain mitochondria (FIG. 4). Measurement of extramitochondrial Ca^2+ was determined using a Perkin-Elmer LS-50B fluorimeter controlled by the FL WinLab computer program. […] The final volume was 2.5 ml and the cuvette was thermostated at 25° C. Brain mitochondria were then subjected to a train of 5 μM Ca^2+ additions (˜150 nmol mg protein^−1). Extramitochondrial Ca^2+ was monitored at excitation/emission wavelengths of 505-535. […] The Ca^2+-retention capacity in liver (a) and brain mitochondria (b) were also compared (FIG. 4B).
# The effect of Spiro[cyclopentane-1,5′-[5H]dibenzo[a,d]cyclohepten]-2-one,10′,11′-dihydro-3-methylene- at inhibiting MPTP was also investigated in mitochondria isolated from rat forebrain. […] Due to the difficulties mentioned above, the effect of Spiro[cyclopentane-1,5′-[5H]dibenzo[a,d]cyclohepten]-2-one,10′,11′-dihydro-3-methylene- on MPTP in brain mitochondria was more accurately investigated by subjecting mitochondria isolated from rat forebrain to a series of Ca^2+ pulses (5 μM, ˜150 nmol mg protein^−1) and by monitoring extramitochondrial Ca^2+ or using fluororescent probes.
# MPTP (Rattus norvegicus) = target: T4, MPTP (Rattus norvegicus); assay: Ca2+-induced swelling (MPTP) in rat liver mitochondria energised with succinate; format: biochemical; conditions: succinate 5 mM + 2 μM rotenone; 80 μM Ca2+; ΔA540 20 min after CaCl2
# T4 construct: other: n=2; glutamate/malate; other: glutamate/malate; 20 min; mean±SEM; unit not given; other: 300 nM; relieved by 50 μM Ub5
# T4 sequence (Q9Z2L0 2-283): as above
# Experimental: Ca^2+-induced swelling (sucrose permeability) in energized mitochondria was assayed at 25° C. in 96 well-plates by measuring changes in absorbance at 540 nm by means of a […]ax 250 spectrophometer controlled by the SOFTmax PRO™ software (Molecular Devices, Switzerland). The incubation medium contained 0.2 M sucrose, 10 mM Tris-Mops, pH 7.4, 1 mM Pi-Tris, 5 μM EGTA. Succinate (5 mM, in the presence of 2 μM rotenone) or 5 mM glutamate/2.5 mM malate, buffered to pH 7.4 with Tris, were used as respiratory substrates. After a short (˜5 min) preincubation in presence or absence of test compounds, mitochondrial swelling was induced by the addition of 20 μl CaCl2 at final concentrations ranging from 40 to 80 μM, depending on respiratory substrates and Ca^2+ sensitivity of the mitochondrial preparation. The final incubation volume was 0.2 ml and the concentration of mitochondria was ˜0.5 mg mitochondrial protein ml^−1. Swelling kinetics was followed for up to 30 min at 25° C. Absorbance readings were taken every 12 sec and the plate was shaken for 3 s between readings to ensure oxygen diffusion during the experiment and to avoid sedimentation of the mitochondria.
# The incubation medium contained 0.2 M sucrose, 10 mM Tris-Mops, pH 7.4, 1 mM Pi-Tris, 5 μM EGTA.
# MPTP [4] = assay: Ca2+-induced depolarisation (membrane potential, Rhodamine-123) of rat brain mitochondria; format: biochemical; conditions: 50 μM Ub5 alone
# Experimental: (B) Ca^2+-induced depolarisation of rat brain mitochondria. The medium used was as in the legend to FIG. 4, except that 0.5 μM Rhodamine-123 was added instead of Calcium Green-5N, and MPTP was induced by addition of 20 μM Ca^2+. Trace a, control (Ca^2+ alone), b, 300 nM Spiro[cyclopentane-1,5′-[5H]dibenzo[a,d]cyclohepten]-2-one,10′,11′-dihydro-3-methylene-, c, 300 nM Spiro[cyclopentane-1,5′-[5H]dibenzo[a,d]cyclohepten]-2-one,10′,11′-dihydro-3-methylene- and 50 μM Ub5.
# The effect of Spiro[cyclopentane-1,5′-[5H]dibenzo[a,d]cyclohepten]-2-one,10′,11′-dihydro-3-methylene- at inhibiting MPTP was also investigated in mitochondria isolated from rat forebrain. […] Due to the difficulties mentioned above, the effect of Spiro[cyclopentane-1,5′-[5H]dibenzo[a,d]cyclohepten]-2-one,10′,11′-dihydro-3-methylene- on MPTP in brain mitochondria was more accurately investigated by subjecting mitochondria isolated from rat forebrain to a series of Ca^2+ pulses (5 μM, ˜150 nmol mg protein^−1) and by monitoring extramitochondrial Ca^2+ or using fluororescent probes. […] Virtually identical results were obtained from experiments where Δψm was monitored after a series of Ca^2+ additions (5 μM each). Each Ca^2+ additions caused a reversible decreases in Δψm, until MPTP opening completely collapsed Δψm and no further fluorescence increase could observed after addition of the protonophore FCCP.
# [5] = Ca2+ pulses, rat brain mitochondria
# T1 sequence (Q9Z2L0 whole entry): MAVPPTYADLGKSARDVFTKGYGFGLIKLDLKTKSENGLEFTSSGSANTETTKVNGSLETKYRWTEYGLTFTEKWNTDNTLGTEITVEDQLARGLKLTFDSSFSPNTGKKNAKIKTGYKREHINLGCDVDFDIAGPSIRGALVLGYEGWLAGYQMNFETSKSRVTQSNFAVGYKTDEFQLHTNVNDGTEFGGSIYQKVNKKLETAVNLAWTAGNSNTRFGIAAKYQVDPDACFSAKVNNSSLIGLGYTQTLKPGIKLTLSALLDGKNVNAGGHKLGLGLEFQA
Compound,Effect on VDAC1 labeling (incorporation of radioactivity) by the tritiated spiro compound (VDAC1),Additive effect when combined with the spiro compound (Example 2) (MPTP [3]; [5]),EC50 (MPTP (Rattus norvegicus)) [µM],further results
CCN(CC)CC1COc2ccc(Br)cc2C1=O (stereo not shown) [6-bromo-3-diethylaminomethyl-chroman-4-one],inhibited,,,
C=C1COc2ccc(Br)cc2C1=O [6-bromo-3-methylene-chroman-4-one],inhibited,no additive effect,,"EC50 (MPTP [1]): 2.8 µM; Inhibition of mitochondrial respiration (basal, ADP-induced and uncoupled) [2]: did not inhibit; Inhibition of Cyp-D peptidyl prolyl cis-trans isomerase activity (Cyp-D): did not inhibit"
"C=C1[C@@H]2CC[C@H]3[C@]4(C)C[C@H](O[C@@H]5O[C@H](CO)[C@@H](OS(=O)(=O)O)[C@H](OS(=O)(=O)O)[C@H]5OC(=O)CC(C)C)C[C@@H](C(=O)O)[C@H]4CC[C@]3(C2)[C@H]1O [ATR, atractyloside]",did not affect,,,
CO[C@H](C/C=C\C=C\CC/C=C/C[C@H](C)/C=C/C(=C\C(=O)O)CC(=O)O)/C(C)=C\C=C(/C)C(=O)O [Bongkrekic acid],did not affect,additive,11.5,
"O=S(=O)(O)c1cc(N=C=S)ccc1C=Cc1ccc(N=C=S)cc1S(=O)(=O)O [DIDS, 4,4′-diisothiocyanatostilbene-2,2′-disulfonic acid]",appeared to inhibit,,,
CN1CCN(CCCN2c3ccccc3Sc3ccc(C(F)(F)F)cc32)CC1 [Trifluoroperazine],did not affect,,9.4,Additive effect when combined with the spiro compound (Example 2) (MPTP [3]): additive
"COC1=C(OC)C(=O)C(C/C=C(\C)CC/C=C(\C)CC/C=C(\C)CC/C=C(\C)CCC=C(C)C)=C(C)C1=O [Ub5, ubiquinone5, reference compound]",,,,Effect of Ub5 alone (MPTP [4]): no effect
COC1=C(OC)C(=O)C(C)=CC1=O [Ubiquinone0],Inhibition,no such additive effect,23.2,EC50 (MPTP [1]): 4.9 µM

# From patent US7642283B2, “Mitochrondrial permeability transition pore affinity labels and modulators” (Hoffmann-La Roche Inc., priority 2003, dated 2010)
